Test system: RSV A2
Assay: High-throughput antiviral screening of protease inhibitor library against RSV A2 in HEp-2 cells
Format: cell-based, Respiratory syncytial virus
Conditions: RSV A2, MOI = 0.1, 1, 5, 10 µmol/L, 72 hpi
From the text: Figure 1. Antiviral activity of metalloproteinase inhibitors against RSV in vitro. (A) Experimental workflow for RSV A2 infection and compound treatment. (B) High-throughput screening of TargetMol L1100 library (246 host protease inhibitors targeting 10 pathways: MMPs, caspases, proteasomes, apoptosis regulators, cysteine proteases, gamma-secretase, autophagy modulators, serine proteases, DPP-4, and beta-secretase) using concentration gradients (1, 5, 10 µmol/L). HEp-2 cells were pretreated with compounds for 1 hour prior to RSV A2 infection (MOI = 0.1). Plaque formation was quantified at 72 hours post-infection (hpi) and normalized to DMSO controls. […] (G) Target overlap analysis of four MMP-9-targeting inhibitors. (H) Viral titers in supernatants of HEp-2 cells transfected with MMP-specific siRNAs (24 h) followed by RSV A2 infection (MOI = 1, 72 h). mean ± SD, n = 3. The results are representatively shown with three random experiments. The error bars indicate the mean ± SD of three technical replicates (n = 3). Statistical significance was determined by one-way ANOVA with Dunnett’s post hoc test: *P < 0.05, ***P < 0.001; ns, not significant.
104 High-throughput antiviral screening
105 The L1100 protease inhibitor library (246 compounds; L1100, TargetMol) was
106 screened against RSV A2 in HEp -2 cells. Compounds (10 mM DMSO stocks) were
107 robotically dispensed 1 h pre -infection at final concentrations of 1, 5, 10 μM.
108 Infection rates (72 hpi) were normalized to PC786 (1 μM; positive control; HY -
109 111813, MCE) and 0.1% DMSO vehicle. Primary hits (>50% CPE reduction + not
110 overtly cytotoxic) underwent dose -response validation (0.00004 –10 μM) to generate
111 EC50 curves (GraphPad Prism 8.0) .
112 Evaluation of in vitro antiviral activity
113 Compound inhibitor treatments: HEp-2 cells (1.3×10⁴/well) or HBEC (1.8×10⁴/well)
114 were pretreated with test compounds for 1 h before RSV A2/B18537 infection
115 (MOI=0.1 or 0.3). Viral inhibition was quantified at 72 hpi via FFA. Fixed cells (4%
116 PFA) were permeabilized (0.3% Triton X-100), stained with anti-RSV-FITC
118 Fluorescent foci were normalized to nuclear counts (ImageJ software) for EC 50
119 determination via four-parameter logistic regression (GraphPad Prism 8.0). Data
120 represent triplicate experiments. […]

Molecule	inhibition of RSV infection in HEp-2 cells
COc1ccccc1Nc1nc(-c2sc(NC(C)=O)nc2C)cs1 [JNJ0966]	significant dose-dependent inhibition
Doxycycline hyclate	significant dose-dependent inhibition
